Test results: patent US9273058B2 (BRISTOL-MYERS SQUIBB COMPANY, priority 2013, dated 2016)

How the values were obtained:
CK1δ = CK1δ (Homo sapiens, UniProt P48730); test: CK1δ kinase assay (Caliper LabChip electrophoretic separation of fluoresceinated peptide substrate and product); assay type: biochemical; conditions: 200 pM CK1δ, 50 μM ATP, 1.5 μM peptide, 22 hours at room temperature; read-out: CK1δ IC50 range
Summary of the method: (§1)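 Compounds, taken from 10 mM DMSO stocks, are titrated at eleven concentrations. Kinase reactions proceed for 22 hours at room temperature and are quenched with EDTA. Substrate and product are resolved electrophoretically, and IC50 values are fitted by non-linear regression.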

CK1ε = CK1ε (Homo sapiens, UniProt P49674); test: CK1ε kinase assay (Caliper LabChip electrophoretic separation of fluoresceinated peptide substrate and product); assay type: biochemical; conditions: 200 pM CK1ε, 50 μM ATP, 1.5 μM peptide, 22 hours at room temperature; read-out: CK1ε IC50 range
Chain of CK1ε (P49674 whole entry): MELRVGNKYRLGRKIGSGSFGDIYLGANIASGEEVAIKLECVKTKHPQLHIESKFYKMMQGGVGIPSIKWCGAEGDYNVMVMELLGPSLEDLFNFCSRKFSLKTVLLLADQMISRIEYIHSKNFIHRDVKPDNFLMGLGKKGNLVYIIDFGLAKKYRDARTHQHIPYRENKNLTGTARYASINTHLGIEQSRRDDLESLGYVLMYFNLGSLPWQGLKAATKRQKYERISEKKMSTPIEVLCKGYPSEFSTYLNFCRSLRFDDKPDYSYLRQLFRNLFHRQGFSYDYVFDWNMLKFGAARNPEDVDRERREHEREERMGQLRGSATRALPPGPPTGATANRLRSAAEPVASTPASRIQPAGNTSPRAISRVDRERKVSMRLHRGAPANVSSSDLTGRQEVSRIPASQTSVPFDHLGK
Summary of the method: as §1

Chain of CK1δ (P48730 whole entry): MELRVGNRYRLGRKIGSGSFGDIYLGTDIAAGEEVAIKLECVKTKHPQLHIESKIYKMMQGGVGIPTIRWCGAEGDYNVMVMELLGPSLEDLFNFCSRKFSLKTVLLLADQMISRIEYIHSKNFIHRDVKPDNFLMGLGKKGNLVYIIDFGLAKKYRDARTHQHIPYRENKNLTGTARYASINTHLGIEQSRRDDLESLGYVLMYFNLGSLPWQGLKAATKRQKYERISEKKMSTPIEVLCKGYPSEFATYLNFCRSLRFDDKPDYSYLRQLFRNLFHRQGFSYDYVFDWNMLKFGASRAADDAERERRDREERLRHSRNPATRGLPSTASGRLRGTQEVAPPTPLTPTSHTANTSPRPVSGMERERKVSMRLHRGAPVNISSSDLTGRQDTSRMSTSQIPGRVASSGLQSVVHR

IC50 (CK1δ) [nM]	IC50 (CK1ε) [nM]	SMILES
10 to 100	10 to 100	CC(C)(C)NC(=O)N1Cc2c(C(N)=O)c(-c3ccc(Cl)c(Cl)c3)nn2C(C(F)F)C1 (centres unmarked) [Compound A31, N^5-(tert-Butyl)-2-(3,4-dichlorophenyl)-7-(difluoromethyl)-6,7-dihydropyrazolo[1,5-a]pyrazine-3,5(4H)-dicarboxamide]
0.01 to 10	0.01 to 10	CC(C)(C)NC(=O)N1Cc2c(C(N)=O)c(-c3ccc(Cl)c(Cl)c3)nn2C(C(F)F)C1 (centres unmarked) [Compound A32, N^5-(tert-Butyl)-2-(3,4-dichlorophenyl)-7-(difluoromethyl)-6,7-dihydropyrazolo[1,5-a]pyrazine-3,5(4H)-dicarboxamide]
0.01 to 10	0.01 to 10	CC1CN(C(=O)NC(C)(C)C)Cc2c(C(N)=O)c(-c3ccc(Cl)c(Cl)c3)nn21 (centres unmarked) [Compound A33, N^5-(tert-Butyl)-2-(3,4-dichlorophenyl)-7-methyl-6,7-dihydropyrazolo[1,5-a]pyrazine-3,5(4H)-dicarboxamide]
0.01 to 10	0.01 to 10	CC1CN(C(=O)NC(C)(C)C)Cc2c(C(N)=O)c(-c3ccc(Cl)c(Cl)c3)nn21 (centres unmarked) [Compound A34, N^5-(tert-Butyl)-2-(3,4-dichlorophenyl)-7-methyl-6,7-dihydropyrazolo[1,5-a]pyrazine-3,5(4H)-dicarboxamide]
0.01 to 10	0.01 to 10	C[C@@H]1CN(C(=O)NC2CC(F)(F)C2)Cc2c(C(N)=O)c(-c3ccc(Cl)c(Cl)c3)nn21 [Compound A35, (R)-2-(3,4-Dichlorophenyl)-N^5-(3,3-difluorocyclobutyl)-7-methyl-6,7-dihydropyrazolo[1,5-a]pyrazine-3,5(4H)-dicarboxamide]
0.01 to 10	0.01 to 10	C[C@H]1CN(C(=O)NC2CC(F)(F)C2)Cc2c(C(N)=O)c(-c3ccc(Cl)c(Cl)c3)nn21 [Compound A36, (S)-2-(3,4-Dichlorophenyl)-N^5-(3,3-difluorocyclobutyl)-7-methyl-6,7-dihydropyrazolo[1,5-c]pyrazine-3,5(4H)-dicarboxamide]
10 to 100	0.01 to 10	CC(C)(C)NC(=O)N1Cc2c(C(N)=O)c(-c3ccc(Cl)c(Cl)c3)nn2C(C(C)(C)O)C1 (centres unmarked) [Compound A37, N^5-(tert-Butyl)-2-(3,4-dichlorophenyl)-7-(2-hydroxypropan-2-yl)-6,7-dihydropyrazolo[1,5-a]pyrazine-3,5(4H)-dicarboxamide]
0.01 to 10	0.01 to 10	CC(C)(C)NC(=O)N1Cc2c(C(N)=O)c(-c3ccc(Cl)c(Cl)c3)nn2C(C(C)(C)O)C1 (centres unmarked) [Compound A38, N^5-(tert-Butyl)-2-(3,4-dichlorophenyl)-7-(2-hydroxypropan-2-yl)-6,7-dihydropyrazolo[1,5-a]pyrazine-3,5(4H)-dicarboxamide]
0.01 to 10	0.01 to 10	CC(C)(C)NC(=O)N1Cc2c(C(N)=O)c(-c3ccc(F)c(Cl)c3)nn2C2(C1)CC(F)(F)C2 [Compound A39, N^5′-(tert-Butyl)-2′-(3-chloro-4-fluorophenyl)-3,3-difluoro-4′H-spiro[cyclobutane-1,7′-pyrazolo[1,5-a]pyrazine]-3′,5′(6′H)-dicarboxamide]
0.01 to 10	0.01 to 10	NC(=O)c1c(-c2cccc(Cl)c2)nn2c1CN(C(=O)NC1(C(F)(F)F)CC1)CC2 [Compound A40, 2-(3-Chlorophenyl)-N^5-(1-(trifluoromethyl)cyclopropyl)-6,7-dihydropyrazolo[1,5-a]pyrazine-3,5(4H)-dicarboxamide]
0.01 to 10	0.01 to 10	CC1(NC(=O)N2CCn3nc(-c4cccc(Cl)c4)c(C(N)=O)c3C2)CC1 [Compound A42, 2-(3-Chlorophenyl)-N^5-(1-methylcyclopropyl)-6,7-dihydropyrazolo[1,5-a]pyrazine-3,5(4H)-dicarboxamide]
0.01 to 10	0.01 to 10	CC(C)(CO)NC(=O)N1CCn2nc(-c3cccc(Cl)c3)c(C(N)=O)c2C1 [Compound A46, 2-(3-Chlorophenyl)-N^5-(1-hydroxy-2-methylpropan-2-yl)-6,7-dihydropyrazolo[1,5-a] pyrazine-3,5(4H)-dicarboxamide]
0.01 to 10	0.01 to 10	COCC(C)(C)NC(=O)N1CCn2nc(-c3cccc(Cl)c3)c(C(N)=O)c2C1 [Compound A47, 2-(3-Chlorophenyl)-N^5-(1-methoxy-2-methylpropan-2-yl)-6,7-dihydropyrazolo[1,5-a] pyrazine-3,5(4H)-dicarboxamide]
0.01 to 10	0.01 to 10	CC(C)(CO)NC(=O)N1CCn2nc(-c3ccc(F)c(Cl)c3)c(C(N)=O)c2C1 [Compound A48, 2-(3-Chloro-4-fluorophenyl)-N^5-(1-hydroxy-2-methylpropan-2-yl)-6,7-dihydropyrazolo[1,5-a] pyrazine-3,5(4H)-dicarboxamide]
0.01 to 10	0.01 to 10	NC(=O)c1c(-c2ccc(F)c(Cl)c2)nn2c1CN(C(=O)NC(CF)(CF)CF)CC2 [Compound A49, 2-(3-Chloro-4-fluorophenyl)-N^5-(1,3-difluoro-2-(fluoromethyl)propan-2-yl)-6,7-dihydropyrazolo[1,5-a] pyrazine-3,5(4H)-dicarboxamide]
0.01 to 10	0.01 to 10	N#Cc1ccc(C23CCC(NC(=O)N4CCn5nc(-c6ccc(F)c(Cl)c6)c(C(N)=O)c5C4)(CC2)CC3)cc1 [Compound A51, 2-(3-Chloro-4-fluorophenyl)-N^5-(4-(4-cyanophenyl)bicyclo[2.2.2]octan-1-yl)-6,7-dihydropyrazolo[1,5-a]pyrazine-3,5(4H)-dicarboxamide]
0.01 to 10	0.01 to 10	NC(=O)c1c(-c2ccc(F)c(Cl)c2)nn2c1CN(C(=O)NC13CCC(c4ccc(F)cc4)(CC1)CC3)CC2 [Compound A52, 2-(3-Chloro-4-fluorophenyl)-N^5-(4-(4-fluorophenyl)bicyclo[2.2.2]octan-1-yl)-6,7-dihydropyrazolo[1,5-a]pyrazine-3,5(4H)-dicarboxamide]
0.01 to 10	0.01 to 10	NC(=O)c1c(-c2ccc(F)c(Cl)c2)nn2c1CN(C(=O)NC13CCC(c4ccccc4)(CC1)CC3)CC2 [Compound A53, 2-(3-Chloro-4-fluorophenyl)-N^5-(4-phenylbicyclo[2.2.2]octan-1-yl)-6,7-dihydropyrazolo[1,5-a]pyrazine-3,5(4H)-dicarboxamide]
0.01 to 10	0.01 to 10	NC(=O)c1c(-c2ccc(F)c(Cl)c2)nn2c1CN(C(=O)NC13CCC(F)(CC1)CC3)CC2 [Compound A54, 2-(3-Chloro-4-fluorophenyl)-N^5-(4-fluorobicyclo[2.2.2]octan-1-yl)-6,7-dihydropyrazolo[1,5-a]pyrazine-3,5(4H)-dicarboxamide]
0.01 to 10	0.01 to 10	NC(=O)c1c(-c2ccc(F)c(Cl)c2)nn2c1CN(C(=O)NC13CCC(CO)(CC1)CC3)CC2 [Compound A55, 2-(3-Chloro-4-fluorophenyl)-N^5-(4-(hydroxymethyl)bicyclo[2.2.2]octan-1-yl)-6,7-dihydropyrazolo[1,5-a]pyrazine-3,5(4H)-dicarboxamide]
0.01 to 10	0.01 to 10	NC(=O)c1c(-c2ccc(F)c(Cl)c2)nn2c1CN(C(=O)NC13CCC(CF)(CC1)CC3)CC2 [Compound A56, 2-(3-Chloro-4-fluorophenyl)-N^5-(4-(fluoromethyl)bicyclo[2.2.2]octan-1-yl)-6,7-dihydropyrazolo[1,5-a]pyrazine-3,5(4H)-dicarboxamide]
0.01 to 10	0.01 to 10	NC(=O)c1c(-c2ccc(F)c(Cl)c2)nn2c1CN(C(=O)NC13CCC(CC1)CC3)CC2 [Compound A58, N^5-(Bicyclo[2.2.2]octan-1-yl)-2-(3-chloro-4-fluorophenyl)-6,7-dihydropyrazolo[1,5-a]pyrazine-3,5(4H)-dicarboxamide]
0.01 to 10	0.01 to 10	COC12CCC(NC(=O)N3CCn4nc(-c5ccc(F)c(Cl)c5)c(C(N)=O)c4C3)(CC1)C(F)(F)C2 [Compound A61, 2-(3-Chloro-4-fluorophenyl)-N^5-(2,2-difluoro-4-methoxybicyclo[2.2.2]octan-1-yl)-6,7-dihydropyrazolo[1,5-a]pyrazine-3,5(4H)-dicarboxamide]
0.01 to 10	0.01 to 10	CC(C)(O)C12CCC(NC(=O)N3CCn4nc(-c5ccc(F)c(Cl)c5)c(C(N)=O)c4C3)(CC1)CC2 [Compound A62, 2-(3-Chloro-4-fluorophenyl)-N^5-(4-(2-hydroxypropan-2-yl)bicyclo[2.2.2]octan-1-yl)-6,7-dihydropyrazolo[1,5-a]pyrazine-3,5(4H)-dicarboxamide]
0.01 to 10	0.01 to 10	COC12CCC(NC(=O)N3CCn4nc(-c5ccc(F)c(Cl)c5)c(C(N)=O)c4C3)(CC1)C2 [Compound A63, 2-(3-Chloro-4-fluorophenyl)-N^5-(4-methoxybicyclo[2.2.1]heptan-1-yl)-6,7-dihydropyrazolo[1,5-a]pyrazine-3,5(4H)-dicarboxamide]
0.01 to 10	0.01 to 10	NC(=O)c1c(-c2ccc(F)c(Cl)c2)nn2c1CN(C(=O)NC13CCCC(CCC1)C3)CC2 [Compound A64, N^5-((1r,5r)-Bicyclo[3.3.1]nonan-1-yl)-2-(3-chloro-4-fluorophenyl)-6,7-dihydropyrazolo[1,5-a]pyrazine-3,5(4H)-dicarboxamide]
0.01 to 10	0.01 to 10	CC12CC3(C)CC(C)(C1)CC(NC(=O)N1CCn4nc(-c5ccc(F)c(Cl)c5)c(C(N)=O)c4C1)(C2)C3 [Compound A65, 2-(3-Chloro-4-fluorophenyl)-N^5-((3s,5s,7s)-3,5,7-trimethyladamantan-1-yl)-6,7-dihydropyrazolo[1,5-a]pyrazine-3,5(4H)-dicarboxamide]
0.01 to 10	0.01 to 10	CC1(C)C2CCC1(NC(=O)N1CCn3nc(-c4ccc(F)c(Cl)c4)c(C(N)=O)c3C1)CC2O (centres unmarked) [Compound A66, 2-(3-Chloro-4-fluorophenyl)-N^5-(3-hydroxy-7,7-dimethylbicyclo[2.2.1]heptan-1-yl)-6,7-dihydropyrazolo[1,5-a]pyrazine-3,5(4H)-dicarboxamide]
